Source: patent US20170190671A1, “BIS(ARYL)CATECHOL DERIVATIVES AS HERBICIDES” (E I DU PONT DE NEMOURS AND COMPANY, priority 2014, published 2017)

Legend:
Type in all cases: in vivo
[1] = tested on: barnyardgrass (Echinochloa crus-galli); test: Test B flooded paddy; settings: Echinochloa crus-galli, 336 h; 250 g ai/ha, Flood, 13 to 15 days, scale 0 (no effect) to 100 (complete control); read-out: Plant response rating, Barnyardgrass
Procedure, shortened: (§1)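 Pots were flooded to 3 cm above the soil surface at treatment, compound applied directly to the paddy water, and that depth held throughout. Plants were kept in a greenhouse for 13 to 15 days, then visually rated against untreated controls.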

[2] = tested on: ducksalad (Heteranthera limosa); test: Test B flooded paddy; settings: Heteranthera limosa, 336 h; 250 g ai/ha, Flood, 13 to 15 days, scale 0 (no effect) to 100 (complete control); read-out: Plant response rating, Ducksalad
Procedure, shortened: as §1

rice (Oryza sativa) = test: Test B flooded paddy; settings: Oryza sativa, 336 h; 250 g ai/ha, Flood, 13 to 15 days, scale 0 (no effect) to 100 (complete control); read-out: Plant response rating, Rice
Procedure, shortened: as §1

[3] = tested on: sedge, umbrella (small-flower umbrella sedge, Cyperus difformis); test: Test B flooded paddy; settings: Cyperus difformis, 336 h; 250 g ai/ha, Flood, 13 to 15 days, scale 0 (no effect) to 100 (complete control); read-out: Plant response rating, Sedge, Umbrella
Procedure, shortened: as §1

[4] = tested on: Italian ryegrass (Lolium multiflorum); test: Test A preemergence; settings: Lolium multiflorum, pre-emergence, 240 h, 1000 g ai/ha, 0 to 100 scale, read-out: Plant response rating, Ryegrass, Italian
Procedure, shortened: (§2)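 Injury scores run from 0, no effect, to 100, complete control, judged by eye against untreated plants roughly 10 days after treatment. Chemicals carried a surfactant in a non-phytotoxic solvent and went onto loam–sand soil preemergence or onto one- to two-leaf seedlings postemergence.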

[5] = tested on: barnyardgrass (Echinochloa crus-galli); test: Test A preemergence; settings: Echinochloa crus-galli, pre-emergence, 240 h, 1000 g ai/ha, 0 to 100 scale, read-out: Plant response rating, Barnyardgrass
Procedure, shortened: as §2

[6] = tested on: giant foxtail (Setaria faberii); test: Test A preemergence; settings: Setaria faberi, pre-emergence, 240 h, 1000 g ai/ha, 0 to 100 scale, read-out: Plant response rating, Foxtail, Giant
Procedure, shortened: as §2

kochia (Kochia scoparia) [7] = test: Test A preemergence; settings: Bassia scoparia, pre-emergence, 240 h, 1000 g ai/ha, 0 to 100 scale, read-out: Plant response rating, Kochia
Procedure, shortened: as §2

[8] = tested on: pigweed (Amaranthus retroflexus); test: Test A preemergence; settings: Amaranthus retroflexus, pre-emergence, 240 h, 1000 g ai/ha, 0 to 100 scale, read-out: Plant response rating, Pigweed
Procedure, shortened: as §2

[9] = tested on: ragweed (common ragweed, Ambrosia elatior); test: Test A preemergence; settings: Ambrosia artemisiifolia, pre-emergence, 240 h, 1000 g ai/ha, 0 to 100 scale, read-out: Plant response rating, Ragweed
Procedure, shortened: as §2

[10] = tested on: Italian ryegrass (Lolium multiflorum); test: Test A postemergence; settings: Lolium multiflorum, post-emergence, 240 h, 1000 g ai/ha, 0 to 100 scale, read-out: Plant response rating, Ryegrass, Italian
Procedure, shortened: as §2

[11] = tested on: barnyardgrass (Echinochloa crus-galli); test: Test A postemergence; settings: Echinochloa crus-galli, post-emergence, 240 h, 1000 g ai/ha, 0 to 100 scale, 0 no effect, 100 complete control, read-out: Plant response rating, Barnyardgrass
Procedure, shortened: as §2

[12] = tested on: blackgrass (Alopecurus myosuroides); test: Test A postemergence; settings: Alopecurus myosuroides, post-emergence, 240 h, 1000 g ai/ha, 0 to 100 scale, read-out: Plant response rating, Blackgrass
Procedure, shortened: as §2

corn (Zea mays) = test: Test A postemergence; settings: Zea mays, post-emergence, 240 h, 1000 g ai/ha, 0 to 100 scale
Procedure, shortened: as §2

[13] = tested on: galium (catchweed bedstraw, Galium aparine); test: Test A postemergence; settings: Galium, post-emergence, 240 h, 1000 g ai/ha, 0 to 100 scale, read-out: Plant response rating, Galium
Procedure, shortened: as §2

[14] = tested on: giant foxtail (Setaria faberii); test: Test A postemergence; settings: Setaria faberi, post-emergence, 240 h, 1000 g ai/ha, 0 to 100 scale, read-out: Plant response rating, Foxtail, Giant
Procedure, shortened: as §2

kochia (Kochia scoparia) [15] = test: Test A postemergence; settings: Bassia scoparia, post-emergence, 240 h, 1000 g ai/ha, 0 to 100 scale, read-out: Plant response rating, Kochia
Procedure, shortened: as §2

[16] = tested on: pigweed (Amaranthus retroflexus); test: Test A postemergence; settings: Amaranthus retroflexus, post-emergence, 240 h, 1000 g ai/ha, 0 to 100 scale, read-out: Plant response rating, Pigweed
Procedure, shortened: as §2

[17] = tested on: ragweed (common ragweed, Ambrosia elatior); test: Test A postemergence; settings: Ambrosia artemisiifolia, post-emergence, 240 h, 1000 g ai/ha, 0 to 100 scale, read-out: Plant response rating, Ragweed
Procedure, shortened: as §2

[18] = tested on: wheat (Triticum aestivum); test: Test A postemergence; settings: Triticum aestivum, post-emergence, 240 h, 1000 g ai/ha, 0 to 100 scale, read-out: Plant response rating, Wheat
Procedure, shortened: as §2

[19] = tested on: pigweed (Amaranthus retroflexus); test: Test C postemergence; settings: Amaranthus retroflexus, post-emergence, 336 h, Postemergence, scale 0 to 100, read-out: Plant response rating, Pigweed
Procedure, shortened: (§3)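 Greenhouse test; preemergence to seeds in loam/sand soil, or postemergence spray to 2-18 cm, 1- to 4-leaf plants in peat/vermiculite medium; compound in non-phytotoxic solvent plus surfactant. Visual rating vs controls at 13-15 d, 0 = no effect, 100 = complete control.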

[20] = tested on: waterhemp (common waterhemp, Amaranthus rudis); test: Test C postemergence; settings: Amaranthus tuberculatus, post-emergence, Postemergence, scale 0 to 100, read-out: Plant response rating, Waterhemp
Procedure, shortened: as §3

Compound: Fc1cnc(Oc2c(Cl)cccc2Oc2ncc(Cl)cn2)nc1 [Compound 18, 5-chloro-2-[5-chloro-6-[(5-fluoro-2-pyrimidinyl)oxy]phenoxy]pyrimidine]
- pest or weed control at 250 g/ha [1]: 50%
- pest or weed control at 250 g/ha [2]: 100%
- plant injury at 250 g/ha (rice (Oryza sativa)): 80%
- pest or weed control at 250 g/ha [3]: 100%
- pest or weed control at 1000 g/ha [4]: 70%
- pest or weed control at 1000 g/ha [5]: 100%
- pest or weed control at 1000 g/ha [6]: 100%
- pest or weed control at 1000 g/ha (kochia (Kochia scoparia) [7]): 100%
- pest or weed control at 1000 g/ha [8]: 100%
- pest or weed control at 1000 g/ha [9]: 30%
- pest or weed control at 1000 g/ha [10]: 100%
- pest or weed control at 1000 g/ha [11]: 80%
- pest or weed control at 1000 g/ha [12]: 100%
- Corn plant response rating (crop injury, 0 = no effect, 100 = complete kill) at 1000 g/ha (corn (Zea mays)): 50%
- pest or weed control at 1000 g/ha [13]: 100%
- pest or weed control at 1000 g/ha [14]: 100%
- pest or weed control at 1000 g/ha (kochia (Kochia scoparia) [15]): 100%
- pest or weed control at 1000 g/ha [16]: 100%
- pest or weed control at 1000 g/ha [17]: 20%
- plant injury at 1000 g/ha [18]: 50%
- pest or weed control at 31 g/ha ([19]; 31 g ai/ha): 80%
- pest or weed control at 62 g/ha ([19]; 62 g ai/ha): 90%
- pest or weed control at 125 g/ha ([19]; 125 g ai/ha): 95%
- pest or weed control at 250 g/ha ([19]; 250 g ai/ha): 98%
- pest or weed control at 31 g/ha ([20]; 31 g ai/ha): 80%
- pest or weed control at 62 g/ha ([20]; 62 g ai/ha): 85%
- pest or weed control at 125 g/ha ([20]; 125 g ai/ha): 95%
- pest or weed control at 250 g/ha ([20]; 250 g ai/ha): 98%
